In US12649750B2, “Macrocyclic compounds, compositions, and methods of using thereof” (Sionna Therapeutics Inc., priority 2022, dated 2026):

How the values were obtained:
NBD1 = target: T1, NBD1 (Homo sapiens, UniProt P13569); test: Aggregation analysis using differential static light scattering (DSLS), thermal stability of NBD1 (ΔTagg); format: binding; settings: ΔTagg versus DMSO control, NBD1 0.2 mg/ml
T1 construct: Purified recombinant NBD1 was produced using previously described methods; made in house
T1 sequence (P13569 423-646 limits assumed): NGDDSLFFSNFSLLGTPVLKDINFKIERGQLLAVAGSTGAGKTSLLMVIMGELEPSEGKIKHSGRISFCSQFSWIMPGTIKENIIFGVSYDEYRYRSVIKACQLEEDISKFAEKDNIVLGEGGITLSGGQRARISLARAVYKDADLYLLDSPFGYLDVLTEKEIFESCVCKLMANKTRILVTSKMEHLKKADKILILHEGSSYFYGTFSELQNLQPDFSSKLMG
How it was run: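 Purified recombinant NBD1 at 0.2 mg/ml in 50 mM Tris-HCl, 150 mM NaCl, 5 mM MgCl2, 2 mM ATP, 2 mM DTT, pH 7.6, 1% glycerol, with compound, heated 1° C./min to 70° C. under light-scattering monitoring. Tagg taken at curve inflection; ΔTagg is compound Tagg minus mean DMSO-control Tagg, binned A (≤5° C.), B (>5-≤10° C.), C (>10-≤25° C.).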

CFTR = target: T2, CFTR (Homo sapiens, UniProt P13569, DEL508-508); test: TECC24 AUC fold over DMSO @10 μM, CFTR-mediated transepithelial chloride transport in CF-HBE cells; format: cell-based; settings: test agent AUC divided by DMSO vehicle AUC, primary CF-HBE cells, ΔF508 homozygous donor, 48 hours incubation
T2 construct: Primary human bronchial epithelial cells from a ΔF508 homozygous CF donor; host or cells: primary human bronchial epithelial cells (CF-HBE), ΔF508 homozygous donor
T2 sequence (P13569 with tags, fused parts or gaps DEL508-508): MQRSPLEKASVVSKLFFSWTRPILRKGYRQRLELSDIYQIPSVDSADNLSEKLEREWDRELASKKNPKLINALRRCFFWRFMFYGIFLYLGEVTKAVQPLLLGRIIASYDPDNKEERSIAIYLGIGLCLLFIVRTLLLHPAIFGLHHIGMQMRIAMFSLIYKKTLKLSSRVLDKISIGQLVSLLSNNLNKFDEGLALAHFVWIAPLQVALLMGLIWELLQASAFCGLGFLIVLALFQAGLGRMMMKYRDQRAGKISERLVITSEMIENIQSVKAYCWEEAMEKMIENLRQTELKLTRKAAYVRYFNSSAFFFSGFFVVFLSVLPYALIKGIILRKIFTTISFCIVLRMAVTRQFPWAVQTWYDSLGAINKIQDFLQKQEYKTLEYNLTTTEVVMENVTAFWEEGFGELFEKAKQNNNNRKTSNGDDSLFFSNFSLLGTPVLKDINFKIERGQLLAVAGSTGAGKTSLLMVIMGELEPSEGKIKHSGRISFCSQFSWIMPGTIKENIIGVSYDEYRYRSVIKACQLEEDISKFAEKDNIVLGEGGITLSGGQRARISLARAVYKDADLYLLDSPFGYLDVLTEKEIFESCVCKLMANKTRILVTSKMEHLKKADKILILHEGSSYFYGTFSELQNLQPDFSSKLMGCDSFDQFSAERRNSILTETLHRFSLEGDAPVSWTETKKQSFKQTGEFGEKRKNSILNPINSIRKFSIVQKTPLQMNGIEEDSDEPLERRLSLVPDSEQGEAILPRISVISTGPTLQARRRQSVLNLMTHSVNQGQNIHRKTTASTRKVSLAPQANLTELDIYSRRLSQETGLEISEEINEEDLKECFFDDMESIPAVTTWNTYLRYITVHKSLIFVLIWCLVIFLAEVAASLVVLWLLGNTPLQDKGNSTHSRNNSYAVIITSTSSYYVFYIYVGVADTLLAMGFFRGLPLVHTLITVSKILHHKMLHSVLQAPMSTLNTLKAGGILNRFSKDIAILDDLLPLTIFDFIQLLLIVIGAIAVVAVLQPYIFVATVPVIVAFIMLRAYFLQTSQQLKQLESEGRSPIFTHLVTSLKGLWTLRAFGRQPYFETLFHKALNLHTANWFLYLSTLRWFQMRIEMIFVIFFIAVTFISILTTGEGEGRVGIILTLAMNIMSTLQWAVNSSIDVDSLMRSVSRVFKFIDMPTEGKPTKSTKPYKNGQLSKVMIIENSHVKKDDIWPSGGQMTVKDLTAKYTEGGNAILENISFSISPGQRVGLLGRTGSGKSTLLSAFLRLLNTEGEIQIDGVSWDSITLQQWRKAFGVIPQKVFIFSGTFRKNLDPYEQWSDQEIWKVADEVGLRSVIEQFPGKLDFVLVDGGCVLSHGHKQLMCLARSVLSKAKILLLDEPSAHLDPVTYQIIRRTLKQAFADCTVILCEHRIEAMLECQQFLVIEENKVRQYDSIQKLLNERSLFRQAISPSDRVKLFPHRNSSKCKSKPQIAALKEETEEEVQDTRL
How it was run: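 ΔF508-homozygous primary bronchial epithelial cells incubated 48 h at 36.5° C with compound (10 μM) in IL-13-containing medium, then TECC24 current-clamp recording in pH 7.4 Hepes saline with benzamil 10 μM, forskolin 10 μM, then CFTR inhibitor-172 20 μM. Equivalent Cl− current AUC between forskolin and inhibitor, expressed as fold over DMSO.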

## Cn1nc2nc1-c1cc(ccc1F)Cc1c(F)cc3[nH]ccc3c1CCS(=O)(=O)CC(C)(C)CCCC2(C)c1cccc(CCC(=O)O)c1 (single isomer, unassigned) [Compound 32B, 3-[3-(22,28-Difluoro-3,6,10,10-tetramethyl-12,12-dioxo-12lambda6-thia-3,4,19,30-tetrazapentacyclo[23.3.1.12,5.015,23.016,20]triaconta-1(29),2(30),4,15,17,20,22,25,27-nonaen-6-yl)phenyl]propanoic Acid]
NBD1
  DSLS 3D (100 μM ΔT): C (a value greater than 10 °C and less than or equal to 25 °C is marked “C”)
CFTR
  TECC (AUC, 10 μM): C (a value between 20 and 80 is marked “C”)

## CC(Cc1cccc(C2(C)CCCC(C)(C)CS(=O)(=O)CCc3c(c(F)cc4[nH]ccc34)Sc3ccc(F)c(c3)-c3nc2nn3C)c1)C(=O)O (single isomer, unassigned) [Compound 33A, 3-[3-(22,28-difluoro-3,6,10,10-tetramethyl-12,12-dioxo-12lambda6,24-dithia-3,4,19,30-tetrazapentacyclo[23.3.1.12,5.015,23.016,20]triaconta-1(29),2(30),4,15,17,20,22,25,27-nonaen-6-yl)phenyl]-2-methyl-propanoic Acid]
NBD1
  DSLS 3D (100 μM ΔT): C (a value greater than 10 °C and less than or equal to 25 °C is marked “C”)
CFTR
  TECC (AUC, 10 μM): C (a value between 20 and 80 is marked “C”)

## CC(Cc1cccc(C2(C)CCCC(C)(C)CS(=O)(=O)CCc3c(c(F)cc4[nH]ccc34)Sc3ccc(F)c(c3)-c3nc2nn3C)c1)C(=O)O (single isomer, unassigned) [Compound 33B, 3-[3-(22,28-difluoro-3,6,10,10-tetramethyl-12,12-dioxo-12lambda6,24-dithia-3,4,19,30-tetrazapentacyclo[23.3.1.12,5.015,23.016,20]triaconta-1(29),2(30),4,15,17,20,22,25,27-nonaen-6-yl)phenyl]-2-methyl-propanoic Acid]
NBD1
  DSLS 3D (100 μM ΔT): B (a value above 5 °C and less than or equal to 10 °C is marked “B”)
CFTR
  TECC (AUC, 10 μM): A (a TECC value less than 12 is marked “A”)

## CC(Cc1cccc(C2(C)CCCC(C)(C)CS(=O)(=O)CCc3c(c(F)cc4[nH]ccc34)S(=O)(=O)c3ccc(F)c(c3)-c3nc2nn3C)c1)C(=O)O (single isomer, unassigned) [Compound 34A, 3-[3-(22,28-difluoro-3,6,10,10-tetramethyl-12,12,24,24-tetraoxo-12lambda6,24lambda6-dithia-3,4,19,30-tetrazapentacyclo[23.3.1.12,5.015,23.016,20]triaconta-1(29),2(30),4,15,17,20,22,25,27-nonaen-6-yl)phenyl]-2-methyl-propanoic Acid]
NBD1
  DSLS 3D (100 μM ΔT): C (a value greater than 10 °C and less than or equal to 25 °C is marked “C”)
CFTR
  TECC (AUC, 10 μM): C (a value between 20 and 80 is marked “C”)

## CC(Cc1cccc(C2(C)CCCC(C)(C)CS(=O)(=O)CCc3c(c(F)cc4[nH]ccc34)S(=O)(=O)c3ccc(F)c(c3)-c3nc2nn3C)c1)C(=O)O (single isomer, unassigned) [Compound 34B, 3-[3-(22,28-difluoro-3,6,10,10-tetramethyl-12,12,24,24-tetraoxo-12lambda6,24lambda6-dithia-3,4,19,30-tetrazapentacyclo[23.3.1.12,5.015,23.016,20]triaconta-1(29),2(30),4,15,17,20,22,25,27-nonaen-6-yl)phenyl]-2-methyl-propanoic Acid]
NBD1
  DSLS 3D (100 μM ΔT): A (an ΔTagg value less than or equal to 5 °C is marked “A”)
CFTR
  TECC (AUC, 10 μM): A (a TECC value less than 12 is marked “A”)

## CC1(C)CCCCC(C)(c2cccc(CCC(=O)O)c2)c2cnc([nH]2)-c2cc(ccc2F)Oc2c(F)cc3[nH]ccc3c2CCS(=O)(=O)C1 (single isomer, unassigned) [Compound 43A, 3-[3-(23,29-difluoro-6,11,11-trimethyl-13,13-dioxo-25-oxa-13lambda6-thia-3,20,31-triazapentacyclo[24.3.1.12,5.016,24.017,21]hentriaconta-1(30),2,4,16,18,21,23,26,28-nonaen-6-yl)phenyl]propanoic Acid]
NBD1
  DSLS 3D (100 μM ΔT): A (an ΔTagg value less than or equal to 5 °C is marked “A”)
CFTR
  TECC (AUC, 10 μM): A (a TECC value less than 12 is marked “A”)

## CC1(c2cccc(CCC(=O)O)c2)CCCC2(CC2)CS(=O)(=O)CCc2c(c(F)cc3[nH]ccc23)Oc2ccc(F)c(c2)-c2ncc1[nH]2 (single isomer, unassigned) [Compound 45A, 3-[3-(22,28-difluoro-6-methyl-12,12-dioxo-spiro [24-oxa-12lambda6-thia-3,19,30-triazapentacyclo[23.3.1.12, 5.015,23.016,20]triaconta-1(29),2,4,15,17,20,22,25,27-nonaene-10,1′-cyclopropane]-6-yl)phenyl]propanoic acid]
NBD1
  DSLS 3D (100 μM ΔT): A (an ΔTagg value less than or equal to 5 °C is marked “A”)
CFTR
  TECC (AUC, 10 μM): A (a TECC value less than 12 is marked “A”)

## CC1(c2cccc(CCC(=O)O)c2)CCCC2(CC2)CS(=O)(=O)CCc2c(c(F)cc3[nH]ccc23)Oc2ccc(F)c(c2)-c2ncc1[nH]2 (single isomer, unassigned) [Compound 45B, 3-[3-(22,28-difluoro-6-methyl-12,12-dioxo-spiro [24-oxa-12lambda6-thia-3,19,30-triazapentacyclo[23.3.1.12, 5.015,23.016,20]triaconta-1(29),2,4,15,17,20,22,25,27-nonaene-10,1′-cyclopropane]-6-yl)phenyl]propanoic acid]
NBD1
  DSLS 3D (100 μM ΔT): C (a value greater than 10 °C and less than or equal to 25 °C is marked “C”)
CFTR
  TECC (AUC, 10 μM): A (a TECC value less than 12 is marked “A”)

## CC1(C)CCCC(C)(c2cccc(OCC(=O)O)c2)c2cnc([nH]2)-c2cc(ccc2F)Oc2c(F)cc3[nH]ccc3c2CCS(=O)(=O)C1 (single isomer, unassigned) [Compound 54A, 2-[3-(22,28-difluoro-6,10,10-trimethyl-12,12-dioxo-24-oxa-12lambda6-thia-3,19,30-triazapentacyclo[23.3.1.12,5.015,23.016,20]triaconta-1(29),2,4,15,17,20,22,25,27-nonaen-6-yl)phenoxy]acetic acid]
NBD1
  DSLS 3D (100 μM ΔT): C (a value greater than 10 °C and less than or equal to 25 °C is marked “C”)
CFTR
  TECC (AUC, 10 μM): C (a value between 20 and 80 is marked “C”)

## CC1(C)CCCC(C)(c2cccc(OCC(=O)O)c2)c2cnc([nH]2)-c2cc(ccc2F)Oc2c(F)cc3[nH]ccc3c2CCS(=O)(=O)C1 (single isomer, unassigned) [Compound 54B, 2-[3-(22,28-difluoro-6,10,10-trimethyl-12,12-dioxo-24-oxa-12lambda6-thia-3,19,30-triazapentacyclo[23.3.1.12,5.015,23.016,20]triaconta-1(29),2,4,15,17,20,22,25,27-nonaen-6-yl)phenoxy]acetic acid]
NBD1
  DSLS 3D (100 μM ΔT): B (a value above 5 °C and less than or equal to 10 °C is marked “B”)
CFTR
  TECC (AUC, 10 μM): A (a TECC value less than 12 is marked “A”)

## Cn1nc2nc1C(C)(c1cccc(CCC(=O)O)c1)CCCC(C)(C)CS(=O)(=O)CCc1c(c(F)cc3[nH]ccc13)Oc1ccc(F)c-2c1 (single isomer, unassigned) [Compound 55A, 3-[3-(22,28-difluoro-4,6,10,10-tetramethyl-12,12-dioxo-24-oxa-12 lambda6-thia-3,4,19,30-tetrazapentacyclo[23.3.1.12,5.015,23.016,20]triaconta-1(29),2,5(30),15,17,20,22,25,27-nonaen-6yl)phenyl]propanoic Acid]
NBD1
  DSLS 3D (100 μM ΔT): C (a value greater than 10 °C and less than or equal to 25 °C is marked “C”)
CFTR
  TECC (AUC, 10 μM): A (a TECC value less than 12 is marked “A”)

## Cn1nc2nc1C(C)(c1cccc(CCC(=O)O)c1)CCCC(C)(C)CS(=O)(=O)CCc1c(c(F)cc3[nH]ccc13)Oc1ccc(F)c-2c1 (single isomer, unassigned) [Compound 55B, 3-[3-(22,28-difluoro-4,6,10,10-tetramethyl-12,12-dioxo-24-oxa-12 lambda6-thia-3,4,19,30-tetrazapentacyclo[23.3.1.12,5.015,23.016,20]triaconta-1(29),2,5(30),15,17,20,22,25,27-nonaen-6yl)phenyl]propanoic Acid]
NBD1
  DSLS 3D (100 μM ΔT): B (a value above 5 °C and less than or equal to 10 °C is marked “B”)
CFTR
  TECC (AUC, 10 μM): A (a TECC value less than 12 is marked “A”)

## CC1(C)CCCC(C)(c2cccc(CCC(=O)O)c2)c2nc(n[nH]2)-c2cc(ccc2F)Oc2c(F)cc3[nH]ccc3c2CCS(=O)(=O)C1 (single isomer, unassigned) [Compound 63A, 3-[3-(22,28-difluoro-6,10,10-trimethyl-12,12-dioxo-24-oxa-12λ6-thia-3,4,19,30-tetrazapentacyclo[23.3.1.12,5.015,23.016,20]triaconta-1(29),2,5(30),15,17,20,22,25,27-nonaen-6-yl)phenyl]propanoic Acid]
NBD1
  DSLS 3D (100 μM ΔT): B (a value above 5 °C and less than or equal to 10 °C is marked “B”)
CFTR
  TECC (AUC, 10 μM): C (a value between 20 and 80 is marked “C”)
